One assay deals with T1, RXRα LBD (Homo sapiens, UniProt P19793).
T1 construct: made in house
T1 sequence (P19793 227-458 limits assumed): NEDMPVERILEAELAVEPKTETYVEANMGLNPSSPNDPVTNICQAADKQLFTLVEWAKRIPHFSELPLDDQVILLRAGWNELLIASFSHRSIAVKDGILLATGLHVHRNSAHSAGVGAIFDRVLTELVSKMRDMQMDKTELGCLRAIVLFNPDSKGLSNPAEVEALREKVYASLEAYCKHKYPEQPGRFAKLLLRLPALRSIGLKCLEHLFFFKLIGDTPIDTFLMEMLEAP
Nature of the assay: Isothermal titration calorimetry, recombinant RXRα LBD. The following applies: ITC. In kind it is binding. The procedure: Isothermal titration calorimetry. ITC experiments for ligand binding to Nurr1 and RXR were conducted on an Affinity ITC instrument (TA Instruments, New Castle, DE) at 25 °C with a stirring rate of 75 rpm using recombinantly expressed ligand binding domain proteins as described previously5,6. The respective LBD protein (12–25 μM) in buffer (20 mM Tris pH 7.5, 100 mM NaCl, 5% glycerol) containing 2-4% DMSO was titrated with the test compounds (100-150 μM in the same buffer containing 2-4% DMSO) in 21–26 injections (1 × 1 μL and 20 × 4 to 25 × 4 μL) with an injection interval of 120 s. As control experiments, the test compounds were titrated to the buffer, and the buffer was titrated to the protein under otherwise identical conditions. The heat rates of the compound-Nurr1 LBD titrations were analyzed using NanoAnalyze software (TA Instruments, New Castle, DE) with an independent binding model.
(In ITC the heat of successive injections is recorded.)

In another assay the target is T2, RXRα (Homo sapiens, UniProt P19793).
T2 construct: pFA-CMV-hRXRα-LBD; expressed in transfected cells; host or cells: HEK293T
T2 sequence (P19793 227-458 limits assumed): T1 sequence (P19793 227-458 limits assumed)
Nature of the assay: Gal4-hybrid reporter gene assay, RXRα. The format is cell-based. The following applies: Gal4-hybrid reporter gene assay; for EC50: mean±S.E.M., n≥3. The protocol:
modified Eagle’s medium (DMEM), high glucose supplemented with 10% fetal calf serum (FCS), sodium pyruvate (1 mM), penicillin (100 U/mL), and streptomycin (100 μg/mL) at 37 °C and 5% CO2 and seeded in 96-well plates (3×10^4 cells/well). After 24 h, the medium was changed to Opti-MEM without supplements, and the cells were transiently transfected using Lipofectamine LTX reagent (Invitrogen) according to the manufacturer’s protocol. Five hours after transfection, the cells were incubated with the test compounds in Opti-MEM supplemented with penicillin (100 U/mL), streptomycin (100 μg/mL), and 0.1% DMSO for 15 h before luciferase activity was measured using the Dual -Glo Luciferase Assay System (Promega) according to the manufacturer’s protocol on a Tecan Spark l uminometer (Tecan Deutschland GmbH, Germany). Firefly luminescence was divided by Renilla luminescence and multiplied by 1000, resulting in relative light units (RLU) to normalize for transfection efficiency and cell growth. Fold activation was obtained by dividing the mean RLU of a sample by the mean RLU of the untreated control. All samples were tested in at least three biologically independent experiments in duplicates. For dose –response curve fitting and calculation of EC50 values, the equation “[Agonist] vs. response – Variable slope (four parameters)” was used in GraphPad Prism (version 5.04, GraphPad Software, La Jolla, CA, USA). […] (10 μM, NR4A) and bexarotene (1 µM, NR2B) served as the positive control. […]
150 μM in the same buffer containing 2-4% DMSO) in 21–26 injections (1 × 1 μL and 20 × 4 to 25 × 4 μL) with an injection interval of 120 s. As control experiments, the test compounds were titrated to the buffer, and the buffer was titrated to the protein under otherwise identical conditions. The heat rates of the compound-Nurr1 LBD titrations were analyzed using NanoAnalyze software (TA Instruments, New Castle, DE) with an independent binding model.
In general terms: A reporter such as luciferase makes a cellular process visible.

Each structure is given as a SMILES string.

In general, Kd refers to the concentration at which binding is half-saturated. Usually EC50 stands for the concentration at which the effect is half-maximal. A high value points to a need for much substance.

On to `Cc1c(C)n(-c2ccc(CC(=O)O)cc2)c2ccc(F)cc12` [compound 3], for which the Kd on RXRα LBD amounted to 0.2 µM. For the same compound, on RXRα, the “max. act. (RXR) α” value is listed as 83±9 fold and it took 0.4 µM to reach a half-maximal effect (EC50).
The corresponding values for `Cc1c2c(n(-c3ccc(CC(=O)O)cc3)c1C)CCC(F)(F)C2` [compound 2] are 1.1 µM, 69±1 fold and 0.97 µM.

The values above are taken from publication PMC7618597, “Dual Nurr1/RXR agonism of valerenic acid and synthetic mimetics enables dimer-selective Nurr1 modulation” (ACS medicinal chemistry letters, 2025).
